The values that follow come from PubChem BioAssay AID1996.

In brackets after ≈: the same amount, converted by molar mass.

In general, kinetic solubility refers to solubility judged after dilution from a stock solution rather than from solid.

For this data set the following is noted: buffer; pH 7.4; 200.0 µM.
Consider `C=CCn1c2[n+](c3ccccc3c1=O)CCCCC2.[I-]`, for which the solubility (kinetic) turned out to be 41.6 µg/mL.
`Cc1ccc(Oc2ncccc2NC(=O)CCCC(=O)O)c2c1CCC2` yielded a solubility (kinetic) greater than 53.2 µg/mL.
Then `COc1cc(NC(=S)N2CCCCC2C)c(OC)cc1Cl` (configuration not stated), with 44.7 µg/mL (≈ 136 µM).
As for `Cc1ccc(S(=O)(=O)Cc2ccc([N+](=O)[O-])cc2)cc1`, the kinetic solubility is less than 0.6 µg/mL.
In turn, `Cc1ccccc1C(=O)Nc1ccc(CN2CCOCC2)cc1` returned a kinetic solubility of 45.9 µg/mL (≈ 148 µM).
In turn, `OC1(C#CCCN2CCCCC2)c2ccccc2-c2ccccc21` registered a kinetic solubility greater than 47.6 µg/mL.
Then `CC1CCN(S(=O)(=O)c2ccc3c(c2)n(C)c(=O)n3C)CC1`, with greater than 48.5 µg/mL; and `O=C(Cc1ccccc1)Nc1ccc(NC(=O)c2ccccc2)nc1`, with 5.2 µg/mL (≈ 15.7 µM); and `CCC(C(=O)Nc1ccccn1)c1ccccc1` (configuration not stated), with greater than 36 µg/mL.
The value for `CN(C)CCOC(=O)NCC12CC3CC(CC(C3)C1)C2.Cl` was greater than 47.5 µg/mL; that for `O=C(Oc1ccc(C(=S)N2CCOCC2)cc1)c1ccccc1[N+](=O)[O-]` was 16.8 µg/mL (≈ 45.1 µM); that for `Cc1occc1C(=O)Nc1cccc([N+](=O)[O-])c1C` was 36 µg/mL (≈ 138 µM).
Then `Cc1ccc(CN2CC(C(=O)Nc3ccncc3)CC2=O)cc1` (configuration not stated), with greater than 46.4 µg/mL; and `CCN(CC)S(=O)(=O)c1c(OC)cc(C)c(Cl)c1C`, with 18.3 µg/mL (≈ 59.8 µM); and `COc1cccc(C(=O)Nc2ccc(NC(=O)C3CC3)nc2)c1`, with 1.6 µg/mL (≈ 5.14 µM).
`O=C(Nc1ccccc1)c1ccccc1OS(=O)(=O)c1ccccc1` came in with a kinetic solubility of 48 µg/mL (≈ 136 µM).
The value for `O=C(C1CCCCC1)N1CCC(O)(c2ccc(Cl)cc2)CC1` was greater than 48.3 µg/mL.
`O=C(CCCn1cnc([N+](=O)[O-])n1)Nc1cc(Cl)ccc1O` yielded a kinetic solubility greater than 48.9 µg/mL.
Then `CCN(CC)S(=O)(=O)c1cc(NC(=O)NCCCl)ccc1C`, with greater than 52.2 µg/mL; and `COc1ccc(CCNC(=S)c2ccccc2)cc1OC`, with greater than 45.2 µg/mL.
Consider `CN1CCC(NC(=O)c2cccc(Oc3ccccc3)c2)CC1`, for which the kinetic solubility is greater than 46.6 µg/mL.
Then `Cc1c(C(=O)c2ccc(Br)cc2)c(=O)n(C)c(=O)n1C`, with 50.1 µg/mL (≈ 149 µM).
On to `COc1ccc(N2CCN(C(=O)Cc3coc4cc(C)ccc34)CC2)cc1`, for which the kinetic solubility is 25.9 µg/mL (≈ 71.1 µM).
With `Cc1onc(-c2c(F)cccc2Cl)c1C(=O)NCc1ccccc1`, the solubility (kinetic) came out at 49.7 µg/mL (≈ 144 µM).
The value for `COC(=O)c1c(NC(=O)CCC(=O)O)sc(Cc2ccccc2)c1C` was 48.7 µg/mL (≈ 135 µM).
The value for `O=C(c1cccnc1)N1CCN(c2ccc3ccccc3n2)CC1` was 39.3 µg/mL (≈ 123 µM); that for `O=C(COc1ccc(Br)cc1)N1CCNC1=O` was greater than 44.9 µg/mL.
Then `COc1ccc(Cl)cc1NCCC(O)c1ccc(F)cc1` (configuration not stated), with 24.7 µg/mL (≈ 79.7 µM); and `N#Cc1ccccc1Cn1c(=O)oc2ccccc21`, with 30.9 µg/mL (≈ 123 µM); and `COc1ccc(/C=C/C(=O)OCC(=O)NC2CCCCCC2)cc1OC`, with 7.1 µg/mL (≈ 19.6 µM).
For `CC1CN(/C=C/C=O)C(C)CC1OC(=O)c1ccccc1` (configuration not stated), the kinetic solubility was greater than 43.1 µg/mL.
Then `O=C(NC1CCN(C(=O)NCc2ccccc2)CC1)c1ccccc1`, with 6.2 µg/mL (≈ 18.4 µM); and `Cc1ccc(OCC(=O)N2CCC(C)CC2)c([N+](=O)[O-])n1`, with 43 µg/mL (≈ 147 µM).
Then `COCCSc1ccccc1C(=O)NCCc1ccccc1`, with greater than 47.3 µg/mL; and `Nc1ccn(C2CC(O)C(CO)O2)c(=O)n1` (configuration not stated), with greater than 34.1 µg/mL; and `O=Cc1cnc(N2CCN(c3ccccc3)CC2)s1`, with greater than 41 µg/mL.
Then `CC(C#N)(Cc1ccccc1)Nc1ccccc1` (configuration not stated), with 18.8 µg/mL (≈ 79.6 µM); and `O=C(O)CC(Sc1n[nH]c(=S)s1)C(=O)O` (configuration not stated), with greater than 39.9 µg/mL; and `COCCNC(=S)c1ccc(Br)cc1`, with 34.5 µg/mL (≈ 126 µM).
`O=C(Nc1cccc(/C=C/c2ccccn2)c1)c1cc(Cl)ccn1` yielded a solubility (kinetic) of 2.1 µg/mL (≈ 6.25 µM).
Then `Cn1ccnc1SCC(=O)c1ccc(F)cc1`, with 32.3 µg/mL (≈ 129 µM); and `CCOC(=O)C1CCCN(CCc2ccccc2)C1` (configuration not stated), with 32.1 µg/mL (≈ 123 µM).
Then `N#CCn1c(CN2CCCC2)nc2ccccc2c1=O`, with 38.6 µg/mL (≈ 144 µM); and `CCc1c(C)sc(NC(=O)/C=C/C(=O)O)c1C(N)=O`, with greater than 42.3 µg/mL; and `CCCCS(=O)(=O)N1CCCC(C(=O)Nc2ccc(Cl)cn2)C1` (configuration not stated), with 19.9 µg/mL (≈ 55.3 µM).
In turn, `CCN(CC(=O)Nc1ccc2c(c1)OCCO2)CC(=O)Nc1ccccc1C(F)(F)F.O=C(O)C(=O)O` came in with a solubility (kinetic) of 47.7 µg/mL.
Then `O=C1ON=C(c2ccccc2)/C1=C/c1ccc(O)cc1`, with greater than 39.8 µg/mL.
For the compound `COCCNCC(=O)Nc1ccc(OC(F)(F)F)cc1.Cl`, the kinetic solubility stood at 48.8 µg/mL.
On to `COc1cc2c(cc1OC)C(C)N(C(=O)c1ccc(C)o1)CC2` (configuration not stated), for which the solubility (kinetic) was greater than 47.3 µg/mL.
Regarding `COC(=O)c1cc(Sc2c(Cl)cccc2Cl)ccn1`, the solubility (kinetic) stood at 37 µg/mL (≈ 118 µM).
The value for `COc1ccccc1CNC(=O)C(NC(=O)c1ccccc1)C(C)C` (configuration not stated) was 9.9 µg/mL (≈ 29.1 µM); that for `COc1cccc(N2CCN(C(=S)Nc3ccc(C)cc3C)CC2)c1` was 0.6 µg/mL (≈ 1.69 µM).
